Data from patent US8735388B2, “Heterocyclic compounds with affinity to muscarinic receptors” (Abbvie B. V. A., priority 2007, dated 2014).
Like-named read-outs stand apart in the source and are kept apart here.

Experiments:
[1] = target: T1, Muscarine M2 (GPCR-A-MA-ACH M2) (Cavia porcellus, UniProt H0VRN8); test: Muscarine M2 functional assay, isolated organ (left atrium, electrically paced), agonist and antagonist mode; set-up: species or system Guinea Pig
T1 construct: from tissue; host or cells: guinea pig left atrium (electrically paced)
T1 sequence (H0VRN8 1-466): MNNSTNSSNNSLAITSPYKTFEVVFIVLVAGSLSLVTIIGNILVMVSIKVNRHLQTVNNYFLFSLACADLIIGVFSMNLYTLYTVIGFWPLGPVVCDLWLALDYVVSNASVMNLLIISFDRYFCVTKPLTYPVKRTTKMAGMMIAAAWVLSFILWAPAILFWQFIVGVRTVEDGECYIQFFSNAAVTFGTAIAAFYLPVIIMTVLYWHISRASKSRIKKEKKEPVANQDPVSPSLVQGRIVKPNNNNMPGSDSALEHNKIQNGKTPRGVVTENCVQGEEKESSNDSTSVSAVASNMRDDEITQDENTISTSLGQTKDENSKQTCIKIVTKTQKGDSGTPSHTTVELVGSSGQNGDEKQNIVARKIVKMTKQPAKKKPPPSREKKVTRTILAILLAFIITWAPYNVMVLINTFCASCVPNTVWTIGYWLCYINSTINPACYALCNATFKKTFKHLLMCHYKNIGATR

[2] = target: T2, Muscarine M4 (GPCR-A-MA-ACH M4) (Homo sapiens, UniProt P08173); test: Muscarine M4 receptor binding, 3H-4DAMP; settings: human M4, CHO cells, ligand 0.2 nM, 60 min/22° C., read-out: RB Musc. M4 3H-DAMP pKi (converted)
T2 construct: expressed in transfected cells; host or cells: CHO cells
T2 sequence (P08173 1-479): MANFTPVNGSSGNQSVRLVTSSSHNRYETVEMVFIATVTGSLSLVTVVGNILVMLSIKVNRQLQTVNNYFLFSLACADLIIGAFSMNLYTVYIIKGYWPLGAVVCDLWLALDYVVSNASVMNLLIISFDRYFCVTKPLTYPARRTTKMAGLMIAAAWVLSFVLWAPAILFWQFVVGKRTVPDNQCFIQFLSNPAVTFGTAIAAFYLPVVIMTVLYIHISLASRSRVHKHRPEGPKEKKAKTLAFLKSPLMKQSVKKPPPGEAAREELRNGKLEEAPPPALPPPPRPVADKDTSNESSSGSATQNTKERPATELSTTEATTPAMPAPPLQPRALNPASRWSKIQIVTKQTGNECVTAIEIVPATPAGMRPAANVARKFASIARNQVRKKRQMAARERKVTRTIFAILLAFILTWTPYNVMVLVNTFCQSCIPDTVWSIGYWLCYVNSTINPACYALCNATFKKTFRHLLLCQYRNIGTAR
Protocol: (§1) Compounds were dissolved in DMSO (10 mM) and diluted in assay buffer to test concentration. Prime testing was at 10 μM; for actives (PI, percent inhibition with respect to total and non-specific binding >40%) testing was continued at lower concentrations in 10-fold dilutions: 1 μM, 0.1 μM, etc.
(§2) Following incubation of compound with the receptor preparation (from ‘Tissue’) and the Ligand at the time and temperature indicated, the receptor preparations were rapidly filtered under vacuum through glass fibre filters; the filters were washed extensively with an ice-cold buffer using a harvester. Bound radioactivity was measured by scintillation counting using a liquid scintillation cocktail.
(§3) Results were expressed as percentage of total Ligand binding and that of Non Specific Binding, per concentration of Compound tested (duplicates); from the concentration—displacement curves IC50 values were determined by non-linear regression analysis using Hill equation curve fitting. The inhibition constants (Ki) were calculated from the Cheng-Prushoff equation Ki=IC50/(1+L/Kd), where L is the concentration of radioligand in the assay, and Kd the affinity of the radioligand for the receptor. Results were expressed as pKi's, means±SD of at least 2 separate experiments; i.e. outliers (outside+/−1 std of mean) and discrepancies were excluded.

[3] = target: T2, Muscarine M4 (GPCR-A-MA-ACH M4); test: Muscarine M4 receptor binding, 3H-Oxotremorine
Protocol: as §1, §2, §3

[4] = target: T2, Muscarine M4 (GPCR-A-MA-ACH M4); test: Muscarine M4 cell-based functional assay (CHO cells, Ca2+ - Aequorin luminescence)
Protocol: Compounds were dissolved in DMSO (10 mM) and diluted in assay buffer to test concentration. Prime testing was at 1 μM; for actives in antagonist mode (PI, percent inhibition with respect to reference agonist and blank>30%) as well as actives in agonist mode (PS, percent stimulation with respect to reference agonist and blank>30%) testing was continued at lower concentrations in 10-fold dilutions: 0.1 μM, 0.01 μM, etc.
Cells were incubated with compound and the response indicated was measured.
The results are expressed as a percent of reference agonist values and blanks in the presence of the test compound, percent stimulation for agonist mode; for the antagonist mode (test compound in the presence of reference agonist) as percent inhibition. The EC50 values (concentration causing a half-maximal stimulation of control values), IC50 values (concentration causing a half-maximal inhibition of control values) were determined by non-linear regression analysis of the concentration-response curves using Hill equation curve fitting.

[5] = target: T3, Muscarine M1 (GPCR-A-MA-ACH M1) (Homo sapiens, UniProt P11229); test: Muscarine M1 receptor binding, 3H-Pirenzepine; settings: human M1, CHO cells, ligand 2 nM, 60 min/22° C., read-out: RB Musc. M1 3H-Pirenzepine pKi (converted)
T3 construct: expressed in transfected cells; host or cells: CHO cells
T3 sequence (P11229 1-460): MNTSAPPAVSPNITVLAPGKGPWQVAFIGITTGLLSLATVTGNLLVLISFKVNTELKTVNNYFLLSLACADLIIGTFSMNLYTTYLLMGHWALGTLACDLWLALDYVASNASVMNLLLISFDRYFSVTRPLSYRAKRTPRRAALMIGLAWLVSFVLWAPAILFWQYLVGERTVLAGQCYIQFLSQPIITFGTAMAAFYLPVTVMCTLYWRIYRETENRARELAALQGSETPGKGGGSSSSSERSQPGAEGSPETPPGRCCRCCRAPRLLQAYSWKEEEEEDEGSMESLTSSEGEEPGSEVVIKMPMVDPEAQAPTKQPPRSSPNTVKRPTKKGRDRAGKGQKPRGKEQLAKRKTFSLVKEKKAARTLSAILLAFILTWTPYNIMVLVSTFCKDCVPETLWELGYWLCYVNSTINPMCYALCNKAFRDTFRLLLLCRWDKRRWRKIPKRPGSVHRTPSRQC
Protocol: as §1, §2, §3

[6] = target: T3, Muscarine M1 (GPCR-A-MA-ACH M1); test: Muscarine M1 cell-based functional assay (CHO cells, Ca2+ - FLIPR Fluorimetry); settings: read-out: Cell funct. Musc. M1 Agonism pEC50 (converted)
[7] = target: T4, Muscarine M3 (GPCR-A-MA-ACH M3) (Cavia porcellus, UniProt H0W1Z3); test: Muscarine M3 functional assay, isolated organ (ileum), agonist and antagonist mode; set-up: species or system Guinea Pig
T4 construct: from tissue; host or cells: guinea pig ileum
T4 sequence (H0W1Z3 1-590): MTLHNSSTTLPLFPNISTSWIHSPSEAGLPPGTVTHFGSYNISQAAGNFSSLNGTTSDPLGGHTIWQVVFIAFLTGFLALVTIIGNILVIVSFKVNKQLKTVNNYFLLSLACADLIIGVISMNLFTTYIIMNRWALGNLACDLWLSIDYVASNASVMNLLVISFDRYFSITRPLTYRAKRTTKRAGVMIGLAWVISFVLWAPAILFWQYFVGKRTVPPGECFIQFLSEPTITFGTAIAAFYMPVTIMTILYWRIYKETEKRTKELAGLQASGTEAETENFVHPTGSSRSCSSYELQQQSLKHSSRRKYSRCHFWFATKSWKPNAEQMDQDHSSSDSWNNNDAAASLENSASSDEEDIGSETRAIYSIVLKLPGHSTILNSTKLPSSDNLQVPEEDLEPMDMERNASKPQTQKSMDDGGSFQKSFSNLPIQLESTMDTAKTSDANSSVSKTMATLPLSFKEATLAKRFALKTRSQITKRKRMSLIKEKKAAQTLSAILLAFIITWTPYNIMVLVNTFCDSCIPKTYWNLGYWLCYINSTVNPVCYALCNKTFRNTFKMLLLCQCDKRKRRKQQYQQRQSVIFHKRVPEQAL

[8] = human M4, CHO cells, receptor binding, ligand 6 nM, 30 min/25° C., read-out: RB Musc. M4 3H-Oxotremorine pKi (converted)
[9] = human M4, CHO cells, agonist mode, reference agonist oxotremorine, read-out: Cell funct. Musc. M4 Agonism pEC50 (converted)
[10] = human M1, CHO cells, agonist mode, reference agonist acetylcholine

COc1ccccc1CNCCCCCCNCCCCCCCCNCCCCCCNCc1ccccc1OC [Methoctramine, reference compound]
Kb [1]: 12.6 nM

CCCCCC#Cc1c[nH]nc1C1=CCCN(C)C1 [Compound 45B, 3-(4-Hept-1-ynyl-1H-pyrazol-3-yl)-1,2,5,6-tetrahydro-1-methylpyridine]
Ki [2]: 1260 nM | Ki [3, 8]: 501 nM | EC50 [4, 9]: 316 nM | Ki [5]: 2000 nM | EC50 [6, 10]: 126 nM

CN1CCC=C(c2n[nH]cc2SCCCc2ccccc2)C1 [Compound 22I, 3-[4-(3-Phenyl-propylsulfanyl)-1H-pyrazol-3-yl]-1,2,5,6-tetrahydro-1-methylpyridine]
Ki [2]: 251 nM | Ki [3, 8]: 100 nM | EC50 [4, 9]: 251 nM | Ki [5]: 794 nM | EC50 [6, 10]: 100 nM

CCCCCc1c[nH]nc1C1=CCCN(C)C1 [Compound 9, 3-(4-Pentyl-1H-pyrazol-3-yl)-1,2,5,6-tetrahydro-1-methylpyridine]
Ki [2]: 316 nM | Ki [3, 8]: 398 nM | EC50 [4, 9]: > 10000 nM | Ki [5]: 1260 nM | EC50 [6, 10]: 126 nM

CN1CCC=C(c2n[nH]cc2SCC=Cc2ccccc2)C1 [Compound 22K, 3-[4-(3-Phenyl-allylsulfanyl)-1H-pyrazol-3-yl]-1,2,5,6-tetrahydro-1-methylpyridine]
Ki [2]: 631 nM | Ki [3, 8]: 398 nM | EC50 [4, 9]: 1260 nM | Ki [5]: 1260 nM | EC50 [6, 10]: 100 nM

CN1CCC=C(c2n[nH]cc2C#CCCCc2ccccc2)C1 [Compound 45D, 3-[4-(5-Phenyl-pent-1-ynyl)-1H-pyrazol-3-yl]-1,2,5,6-tetrahydro-1-methylpyridine]
Ki [2]: 631 nM | Ki [3, 8]: 501 nM | EC50 [4, 9]: 1260 nM | Ki [5]: 2000 nM | EC50 [6, 10]: 794 nM

CN1CCN(CC(=O)N2c3ccccc3C(=O)Nc3cccnc32)CC1 [Pirenzepine, reference compound]
Kb [7]: 1.26 nM

CCCCSc1c[nH]nc1[C@@H]1CN2CCC[C@H]1C2 (relative stereo) [Compound 60B, Endo-6-(4-butylsulfanyl-1H-pyrazol-3-yl)-1-azabicyclo[3.2.1]octane]
Ki [2]: 158 nM | Ki [3]: 251 nM | EC50 [4, 9]: > 10000 nM | Ki [5]: 398 nM | EC50 [6, 10]: > 1000 nM

CCCCCCC=Cc1conc1C1=CCCN(C)C1 [Compound 68B, 3-(4-Oct-1-enyl-isoxazol-3-yl)-1,2,5,6-tetrahydro-1-methylpyridine]
Ki [2]: 1000 nM | Ki [3, 8]: 794 nM | EC50 [4, 9]: 794 nM | Ki [5]: 5010 nM | EC50 [6, 10]: 794 nM

COCCOCCSc1c[nH]nc1C1=CCCN(C)C1 [Compound 22P, 3-{4-[2-(2-Methoxy-ethoxy)-ethylsulfanyl]-1H-pyrazol-3-yl}-1,2,5,6-tetrahydro-1-methylpyridine]
Ki [2]: 6310 nM | Ki [3, 8]: 6310 nM | EC50 [4, 9]: 1260 nM | Ki [5]: > 10000 nM | EC50 [6, 10]: 398 nM

CCSc1c[nH]nc1C1CN2CCC1CC2 (stereo not shown) [Compound 49D, 3-(4-Ethylsulfanyl-1H-pyrazol-3-yl)-1-azabicyclo[2.2.2]octane]
Ki [2]: 100 nM | Ki [3]: 126 nM | EC50 [4]: 158 nM | Ki [5]: 794 nM | EC50 [6]: 39.8 nM

CCCCCC#Cc1conc1C1=CCCN(C)C1 [Compound 70A, 3-(4-Hept-1-ynyl-isoxazol-3-yl)-1,2,5,6-tetrahydro-1-methylpyridine]
Ki [2]: 200 nM | Ki [3, 8]: 251 nM | EC50 [4, 9]: 631 nM | Ki [5]: 1000 nM | EC50 [6, 10]: 251 nM

CN1CCC=C(c2n[nH]cc2C#CCCCC2CCCCC2)C1 [Compound 45E, 3-[4-(5-Cyclohexyl-pent-1-ynyl)-1H-pyrazol-3-yl]-1,2,5,6-tetrahydro-1-methylpyridine]
Ki [2]: 1580 nM | Ki [3, 8]: 1580 nM | EC50 [4, 9]: > 10000 nM | Ki [5]: 1580 nM | EC50 [6, 10]: > 1000 nM

CCCCC=Cc1c[nH]nc1C1=CCCN(C)C1 [Compound 47A, 3-(4-Hex-1-enyl-1H-pyrazol-3-yl)-1,2,5,6-tetrahydro-1-methylpyridine]
Ki [2]: 794 nM | Ki [3, 8]: 251 nM | EC50 [4, 9]: 501 nM | Ki [5]: 2510 nM | EC50 [6, 10]: 158 nM

CCCCCCC=Cc1c[nH]nc1C1=CCCN(C)C1 [Compound 47C, 3-(4-Oct-1-enyl-1H-pyrazol-3-yl)-1,2,5,6-tetrahydro-1-methylpyridine]
Ki [2]: 794 nM | Ki [3, 8]: 251 nM | EC50 [4, 9]: 631 nM | Ki [5]: 794 nM | EC50 [6, 10]: 794 nM
